Experimental data: patent publication US8471005B2 (Cephalon, Inc., priority 2008, dated 2013)
pIC50: −log10 of the molar value. Like-named read-outs stand apart in the source and are kept apart here.

Columns and labels:
[1] = molecular target: T1, ALK (Homo sapiens, UniProt Q9UM73); assay: ALK Kinase Assay (ELISA/TRF, PLC-γ substrate); assay type: biochemical; conditions: read-out: ALK Potency
T1 construct: host or cells: baculovirus expression system
Summary of the method: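 Wells were coated with 10 μg/mL phospholipase C-γ substrate in TBS, and the reaction was started by adding 30 ng/ml ALK enzyme and run at 37° C for 15 minutes. Phosphorylated product was detected with Eu-N1-labeled PT66 antibody, and IC50 values came from sigmoidal variable-slope fits of percent inhibition against log concentration.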

[2] = molecular target: T2, JAK2 (Homo sapiens, UniProt O60674); assay: Recombinant Human JAK2 Kinase Assay (TRF); assay type: biochemical; conditions: read-out: JAK2 Potency
T2 construct: host or cells: baculovirus expression system
T2 sequence (O60674 whole entry): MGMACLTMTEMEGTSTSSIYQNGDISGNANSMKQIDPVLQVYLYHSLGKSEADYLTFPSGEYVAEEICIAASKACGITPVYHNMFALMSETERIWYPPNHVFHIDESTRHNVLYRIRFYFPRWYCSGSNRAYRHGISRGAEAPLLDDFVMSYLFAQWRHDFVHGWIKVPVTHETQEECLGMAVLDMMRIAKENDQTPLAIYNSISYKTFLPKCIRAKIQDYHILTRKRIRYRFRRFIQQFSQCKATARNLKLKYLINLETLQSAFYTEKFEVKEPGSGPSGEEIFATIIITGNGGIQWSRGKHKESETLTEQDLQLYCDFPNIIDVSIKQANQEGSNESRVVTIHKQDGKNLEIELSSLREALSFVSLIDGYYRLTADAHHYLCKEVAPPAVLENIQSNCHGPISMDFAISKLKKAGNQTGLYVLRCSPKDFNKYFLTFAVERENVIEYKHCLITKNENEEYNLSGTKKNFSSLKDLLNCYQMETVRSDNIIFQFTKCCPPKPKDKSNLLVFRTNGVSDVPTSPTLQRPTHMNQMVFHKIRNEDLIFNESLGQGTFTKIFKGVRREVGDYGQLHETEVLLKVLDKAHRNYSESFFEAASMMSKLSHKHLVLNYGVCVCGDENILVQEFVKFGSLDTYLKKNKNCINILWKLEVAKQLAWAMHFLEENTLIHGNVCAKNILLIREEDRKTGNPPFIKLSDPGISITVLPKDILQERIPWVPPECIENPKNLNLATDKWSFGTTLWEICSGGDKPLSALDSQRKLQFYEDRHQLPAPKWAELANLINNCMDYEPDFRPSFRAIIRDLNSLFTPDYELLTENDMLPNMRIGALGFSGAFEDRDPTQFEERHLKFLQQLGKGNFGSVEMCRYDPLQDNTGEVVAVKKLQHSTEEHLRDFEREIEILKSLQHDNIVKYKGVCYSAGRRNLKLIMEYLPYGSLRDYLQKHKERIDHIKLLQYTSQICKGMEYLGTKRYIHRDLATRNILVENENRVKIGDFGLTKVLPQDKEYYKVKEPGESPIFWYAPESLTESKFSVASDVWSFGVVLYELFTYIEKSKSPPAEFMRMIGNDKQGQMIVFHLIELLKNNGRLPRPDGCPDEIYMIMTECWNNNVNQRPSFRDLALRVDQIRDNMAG
Summary of the method: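 TRF read-out: Eu-N1 PY100 anti-phosphotyrosine antibody detects product. Enzyme is baculovirus-expressed JAK2 at 15 ng/ml; substrate is a biotinyl 15-mer peptide bound to Neutravidin-coated wells. Buffer 20 mM HEPES pH 7.2, 0.2 μM ATP, 1 mM MnCl2, 0.1% BSA, 2.5% DMSO final; 20 min, RT.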

[3] = ALK kinase inhibition, 1 μM ATP
[4] = JAK2 kinase inhibition, 0.2 μM ATP

T1 sequence (Q9UM73 19-1620): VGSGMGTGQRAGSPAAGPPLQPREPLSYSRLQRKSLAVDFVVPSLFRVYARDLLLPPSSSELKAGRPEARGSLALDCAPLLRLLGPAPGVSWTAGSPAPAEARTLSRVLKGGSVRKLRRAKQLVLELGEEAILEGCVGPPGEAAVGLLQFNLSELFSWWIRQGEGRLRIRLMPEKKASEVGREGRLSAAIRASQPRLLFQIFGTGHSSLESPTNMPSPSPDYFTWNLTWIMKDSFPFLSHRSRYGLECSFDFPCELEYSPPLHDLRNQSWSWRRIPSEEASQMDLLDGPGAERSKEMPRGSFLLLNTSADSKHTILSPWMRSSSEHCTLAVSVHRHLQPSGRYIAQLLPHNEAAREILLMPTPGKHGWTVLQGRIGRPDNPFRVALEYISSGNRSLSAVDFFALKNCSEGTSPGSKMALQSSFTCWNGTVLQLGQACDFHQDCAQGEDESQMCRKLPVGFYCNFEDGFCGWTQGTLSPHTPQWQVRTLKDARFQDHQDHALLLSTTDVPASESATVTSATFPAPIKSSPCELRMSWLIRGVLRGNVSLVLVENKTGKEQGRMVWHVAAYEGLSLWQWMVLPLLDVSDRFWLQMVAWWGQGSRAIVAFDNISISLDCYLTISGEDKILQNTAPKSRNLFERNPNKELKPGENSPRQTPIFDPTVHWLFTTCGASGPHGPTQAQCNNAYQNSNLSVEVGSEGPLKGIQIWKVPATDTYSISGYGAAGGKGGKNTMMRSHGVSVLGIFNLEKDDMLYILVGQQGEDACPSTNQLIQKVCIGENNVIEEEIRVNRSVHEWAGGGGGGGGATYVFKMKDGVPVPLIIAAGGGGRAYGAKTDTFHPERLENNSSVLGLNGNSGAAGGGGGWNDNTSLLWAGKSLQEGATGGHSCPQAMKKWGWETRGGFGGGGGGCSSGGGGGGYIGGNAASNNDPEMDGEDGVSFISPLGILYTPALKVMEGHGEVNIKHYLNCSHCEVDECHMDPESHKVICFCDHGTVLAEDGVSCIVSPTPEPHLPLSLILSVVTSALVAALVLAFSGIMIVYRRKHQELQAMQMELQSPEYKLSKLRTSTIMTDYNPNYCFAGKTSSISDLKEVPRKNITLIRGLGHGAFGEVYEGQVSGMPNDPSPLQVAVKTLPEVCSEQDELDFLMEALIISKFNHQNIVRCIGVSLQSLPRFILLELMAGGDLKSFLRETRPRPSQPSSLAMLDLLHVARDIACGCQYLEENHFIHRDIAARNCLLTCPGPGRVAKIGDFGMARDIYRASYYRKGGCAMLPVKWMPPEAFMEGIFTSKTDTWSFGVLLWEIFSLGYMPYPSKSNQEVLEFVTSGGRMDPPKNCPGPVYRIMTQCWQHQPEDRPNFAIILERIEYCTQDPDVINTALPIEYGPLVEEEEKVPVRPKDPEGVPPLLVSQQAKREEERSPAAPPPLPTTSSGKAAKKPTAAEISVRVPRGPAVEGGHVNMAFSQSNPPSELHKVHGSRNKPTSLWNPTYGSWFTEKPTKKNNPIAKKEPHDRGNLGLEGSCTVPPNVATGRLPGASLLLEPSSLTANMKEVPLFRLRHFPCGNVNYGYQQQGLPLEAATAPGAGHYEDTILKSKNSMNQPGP

| Structure (SMILES) | pIC50 ([1]; ALK Kinase Inhibition) | pIC50 ([2]; JAK2 Kinase Inhibition) | pIC50 [1, 3] | pIC50 [2, 4] |
| --- | --- | --- | --- | --- |
| COc1cc(CN2CCC(O)CC2)ccc1Nc1ncc2ccc(-c3ccccc3OC)n2n1 [Example 1235, 1-{3-Methoxy-4-[7-(2-methoxy-phenyl)-pyrrolo[2,1-f][1,2,4]triazin-2-ylamino]-benzyl}-piperidin-4-ol] |  |  | > 7.00 | 6.00 to 7.00 |
| COc1ccccc1-c1ccc2cnc(Nc3ccc4c(c3)N3CCC4CC3)nn12 [Example 764, (3,4-Dihydro-2H-1,4-ethano-quinolin-7-yl)-[7-(2-methoxy-phenyl)-pyrrolo[2,1-f][1,2,4]triazin-2-yl]-amine] |  |  | > 7.00 | > 7.00 |
| COc1ccccc1-c1ccc2cnc(Nc3ccc(N4CCCC(CN5CCN(C)CC5)C4)cc3)nn12 (stereo not drawn) [Example 456, [7-(2-Methoxy-phenyl)-pyrrolo[2,1-f][1,2,4]triazin-2-yl]-{4-[3-(4-methyl-piperazin-1-ylmethyl)-piperidin-1-yl]-phenyl}-amine] | > 7.00 | > 7.00 |  |  |
| COc1cc(N2CCC3(CC2)OCCO3)ccc1Nc1ncc2ccc(-c3ccccc3OC)n2n1 [Example 482, [4-(1,4-Dioxa-8-aza-spiro[4.5]dec-8-yl)-2-methoxy-phenyl]-[7-(2-methoxy-phenyl)-pyrrolo[2,1-f][1,2,4]triazin-2-yl]-amine] |  |  | 6.00 to 7.00 | 6.00 to 7.00 |
| COc1cc(N2CCN(C)CC2)ccc1Nc1ncc2ccc(-c3ccc(C#N)nc3)n2n1 [Example 77, 5-{2-[2-Methoxy-4-(4-methyl-piperazin-1-yl)-phenylamino]-pyrrolo[2,1-f][1,2,4]triazin-7-yl}-pyridine-2-carbonitrile] | 6.00 to 7.00 | > 7.00 |  |  |

Now from value to compound:

| pIC50 ([1]; ALK Kinase Inhibition) | pIC50 ([2]; JAK2 Kinase Inhibition) | pIC50 [1, 3] | pIC50 [2, 4] | Structure (SMILES) |
| --- | --- | --- | --- | --- |
| > 7.00 | > 7.00 |  |  | CN1CCN(c2ccc(Nc3ncc4ccc(-c5cccc(Cl)c5)n4n3)cc2)CC1 [Example 26, [7-(3-Chloro-phenyl)-pyrrolo[2,1-f][1,2,4]triazin-2-yl]-[4-(4-methyl-piperazin-1-yl)-phenyl]-amine] |
| 5.00 to 6.00 | > 7.00 |  |  | CC(C)(C)NS(=O)(=O)c1cccc(-c2ccc3cnc(Nc4ccc(-c5cnco5)cc4)nn23)c1 [Example 1402, N-tert-Butyl-3-[2-(4-oxazol-5-yl-phenylamino)-pyrrolo[2,1-f][1,2,4]triazin-7-yl]-benzenesulfonamide] |
| 6.00 to 7.00 | > 7.00 |  |  | CN1CCN(c2ccc(Nc3ncc4ccc(-c5ccccc5CO)n4n3)cc2)CC1 [Example 1504, (2-{2-[4-(4-Methyl-piperazin-1-yl)-phenylamino]-pyrrolo[2,1-f][1,2,4]triazin-7-yl}-phenyl)-methanol] |
|  |  | 5.00 to 6.00 | > 7.00 | COc1ccc(-c2ccc3cnc(Nc4cccc(NCC(N)=O)c4)nn23)cn1 [Example 975, 2-{3-[7-(6-Methoxy-pyridin-3-yl)-pyrrolo[2,1-f][1,2,4]triazin-2-ylamino]-phenylamino}-acetamide] |
| 6.00 to 7.00 | > 7.00 |  |  | CN1CCN(C2CCCN(c3ccc(Nc4ncc5ccc(-c6cccnc6)n5n4)cc3)C2)CC1 (stereo not drawn) [Example 352, {4-[3-(4-Methyl-piperazin-1-yl)-piperidin-1-yl]-phenyl}-(7-pyridin-3-yl-pyrrolo[2,1-f][1,2,4]triazin-2-yl)-amine] |
|  |  | 5.00 to 6.00 | 5.00 to 6.00 | COc1ccc(CN2CCN(C)CC2)cc1Nc1ncc2ccc(-c3ccccc3N(C)S(C)(=O)=O)n2n1 [Example 497, N-(2-{2-[2-Methoxy-5-(4-methyl-piperazin-1-ylmethyl)-phenylamino]-pyrrolo[2,1-f][1,2,4]triazin-7-yl}-phenyl)-N-methyl-methanesulfonamide] |
| > 7.00 | > 7.00 |  |  | COc1ccccc1-c1ccc2cnc(Nc3cccc(C4(O)CCNCC4)c3)nn12 [Example 1565, 4-{3-[7-(2-Methoxy-phenyl)-pyrrolo[2,1-f][1,2,4]triazin-2-ylamino]-phenyl}-piperidin-4-ol] |
